Results: ChEMBL document CHEMBL3351316, “Scaffold hopping approach on the route to selective tankyrase inhibitors” (Eur J Med Chem, 2014)

Molecular target: T1, Tankyrase 1/2 (Homo sapiens, UniProt Q9H2K2+O95271)
T1 sequence (Q9H2K2 whole entry): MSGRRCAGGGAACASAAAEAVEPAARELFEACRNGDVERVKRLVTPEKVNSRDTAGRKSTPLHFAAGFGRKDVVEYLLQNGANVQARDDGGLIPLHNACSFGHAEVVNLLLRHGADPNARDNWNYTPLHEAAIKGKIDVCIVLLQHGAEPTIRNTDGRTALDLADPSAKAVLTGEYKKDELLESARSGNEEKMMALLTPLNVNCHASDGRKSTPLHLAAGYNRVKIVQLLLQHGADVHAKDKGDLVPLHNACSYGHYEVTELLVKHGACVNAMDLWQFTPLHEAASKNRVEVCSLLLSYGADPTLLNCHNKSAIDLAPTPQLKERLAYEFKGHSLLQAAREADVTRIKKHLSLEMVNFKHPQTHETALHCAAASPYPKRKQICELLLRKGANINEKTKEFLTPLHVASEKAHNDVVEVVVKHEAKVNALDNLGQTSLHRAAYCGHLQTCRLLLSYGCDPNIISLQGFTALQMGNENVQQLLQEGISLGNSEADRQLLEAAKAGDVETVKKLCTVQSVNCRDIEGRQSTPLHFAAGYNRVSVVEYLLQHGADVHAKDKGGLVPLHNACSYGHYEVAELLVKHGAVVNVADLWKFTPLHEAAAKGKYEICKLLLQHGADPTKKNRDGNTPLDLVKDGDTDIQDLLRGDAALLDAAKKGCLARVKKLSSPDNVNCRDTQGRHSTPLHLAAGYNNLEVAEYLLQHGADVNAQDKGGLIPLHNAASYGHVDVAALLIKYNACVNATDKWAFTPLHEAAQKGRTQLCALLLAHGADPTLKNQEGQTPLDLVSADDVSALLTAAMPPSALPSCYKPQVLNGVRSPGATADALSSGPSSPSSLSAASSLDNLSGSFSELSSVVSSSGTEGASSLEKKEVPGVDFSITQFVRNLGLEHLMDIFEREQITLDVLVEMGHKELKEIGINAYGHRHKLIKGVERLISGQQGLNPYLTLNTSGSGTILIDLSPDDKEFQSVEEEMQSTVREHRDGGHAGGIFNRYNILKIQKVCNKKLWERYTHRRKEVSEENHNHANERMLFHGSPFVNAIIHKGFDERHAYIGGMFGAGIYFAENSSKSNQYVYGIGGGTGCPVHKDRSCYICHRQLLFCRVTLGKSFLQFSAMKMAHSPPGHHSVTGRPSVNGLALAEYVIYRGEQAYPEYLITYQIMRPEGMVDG
T1 sequence (O95271 whole entry): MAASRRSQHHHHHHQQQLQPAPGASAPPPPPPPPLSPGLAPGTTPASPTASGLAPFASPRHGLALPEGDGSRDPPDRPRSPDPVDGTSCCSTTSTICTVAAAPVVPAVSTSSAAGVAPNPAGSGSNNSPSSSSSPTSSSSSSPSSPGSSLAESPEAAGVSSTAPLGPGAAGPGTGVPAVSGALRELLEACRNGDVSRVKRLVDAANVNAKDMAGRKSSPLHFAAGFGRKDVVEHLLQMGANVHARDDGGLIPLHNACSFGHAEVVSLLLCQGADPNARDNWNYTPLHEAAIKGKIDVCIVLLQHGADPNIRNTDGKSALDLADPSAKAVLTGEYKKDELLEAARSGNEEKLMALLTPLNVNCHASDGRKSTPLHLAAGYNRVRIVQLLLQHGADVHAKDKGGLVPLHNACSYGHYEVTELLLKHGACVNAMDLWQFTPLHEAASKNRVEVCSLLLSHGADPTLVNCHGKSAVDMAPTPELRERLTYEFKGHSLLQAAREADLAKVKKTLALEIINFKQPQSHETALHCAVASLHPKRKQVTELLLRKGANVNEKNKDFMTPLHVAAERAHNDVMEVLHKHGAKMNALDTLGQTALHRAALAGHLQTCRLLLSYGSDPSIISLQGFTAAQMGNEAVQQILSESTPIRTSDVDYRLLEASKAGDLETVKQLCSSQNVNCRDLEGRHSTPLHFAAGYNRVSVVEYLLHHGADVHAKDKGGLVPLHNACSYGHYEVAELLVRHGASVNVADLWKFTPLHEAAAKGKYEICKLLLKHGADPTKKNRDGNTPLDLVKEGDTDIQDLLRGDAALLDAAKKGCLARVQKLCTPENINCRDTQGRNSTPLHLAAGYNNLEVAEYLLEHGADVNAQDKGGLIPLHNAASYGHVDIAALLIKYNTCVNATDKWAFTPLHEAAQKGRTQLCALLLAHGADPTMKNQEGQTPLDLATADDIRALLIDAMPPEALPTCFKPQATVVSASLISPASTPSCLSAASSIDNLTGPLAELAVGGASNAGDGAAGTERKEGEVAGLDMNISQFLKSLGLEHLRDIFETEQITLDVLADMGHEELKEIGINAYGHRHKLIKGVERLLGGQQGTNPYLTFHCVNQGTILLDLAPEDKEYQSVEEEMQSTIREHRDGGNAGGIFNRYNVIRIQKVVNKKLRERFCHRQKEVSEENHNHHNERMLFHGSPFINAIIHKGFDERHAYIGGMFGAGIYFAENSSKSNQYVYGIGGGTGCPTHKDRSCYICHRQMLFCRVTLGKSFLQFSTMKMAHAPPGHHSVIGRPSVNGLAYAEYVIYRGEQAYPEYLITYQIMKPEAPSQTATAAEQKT
Experiment: Inhibition of tankyrase in human DLD1 cells assessed as reduction in Wnt activity after 24 hrs by TCF-luciferase reporter gene assay
Type: cell-based
Conditions: dld-1

Compound: CC(C)(C)c1ccc(-c2nc3c(sc4ccccc43)c(=O)[nH]2)cc1
- IC50: 832 nM
